Assay results reported in patent publication US10758534B2 (Vertex Pharmaceuticals Incorporated, priority 2014, dated 2020).

What follows are molecules tested against T1, F508del (Homo sapiens, UniProt P13569, DEL508-508) (assay: Protocol 1: membrane potential optical assay (FLIPR III, voltage sensing dye), identification of potentiator compounds). Conditions: Table 3, compounds of Table 1.
T1 construct: expressed in transfected cells
T1 sequence (P13569 with tags, fused parts or gaps DEL508-508): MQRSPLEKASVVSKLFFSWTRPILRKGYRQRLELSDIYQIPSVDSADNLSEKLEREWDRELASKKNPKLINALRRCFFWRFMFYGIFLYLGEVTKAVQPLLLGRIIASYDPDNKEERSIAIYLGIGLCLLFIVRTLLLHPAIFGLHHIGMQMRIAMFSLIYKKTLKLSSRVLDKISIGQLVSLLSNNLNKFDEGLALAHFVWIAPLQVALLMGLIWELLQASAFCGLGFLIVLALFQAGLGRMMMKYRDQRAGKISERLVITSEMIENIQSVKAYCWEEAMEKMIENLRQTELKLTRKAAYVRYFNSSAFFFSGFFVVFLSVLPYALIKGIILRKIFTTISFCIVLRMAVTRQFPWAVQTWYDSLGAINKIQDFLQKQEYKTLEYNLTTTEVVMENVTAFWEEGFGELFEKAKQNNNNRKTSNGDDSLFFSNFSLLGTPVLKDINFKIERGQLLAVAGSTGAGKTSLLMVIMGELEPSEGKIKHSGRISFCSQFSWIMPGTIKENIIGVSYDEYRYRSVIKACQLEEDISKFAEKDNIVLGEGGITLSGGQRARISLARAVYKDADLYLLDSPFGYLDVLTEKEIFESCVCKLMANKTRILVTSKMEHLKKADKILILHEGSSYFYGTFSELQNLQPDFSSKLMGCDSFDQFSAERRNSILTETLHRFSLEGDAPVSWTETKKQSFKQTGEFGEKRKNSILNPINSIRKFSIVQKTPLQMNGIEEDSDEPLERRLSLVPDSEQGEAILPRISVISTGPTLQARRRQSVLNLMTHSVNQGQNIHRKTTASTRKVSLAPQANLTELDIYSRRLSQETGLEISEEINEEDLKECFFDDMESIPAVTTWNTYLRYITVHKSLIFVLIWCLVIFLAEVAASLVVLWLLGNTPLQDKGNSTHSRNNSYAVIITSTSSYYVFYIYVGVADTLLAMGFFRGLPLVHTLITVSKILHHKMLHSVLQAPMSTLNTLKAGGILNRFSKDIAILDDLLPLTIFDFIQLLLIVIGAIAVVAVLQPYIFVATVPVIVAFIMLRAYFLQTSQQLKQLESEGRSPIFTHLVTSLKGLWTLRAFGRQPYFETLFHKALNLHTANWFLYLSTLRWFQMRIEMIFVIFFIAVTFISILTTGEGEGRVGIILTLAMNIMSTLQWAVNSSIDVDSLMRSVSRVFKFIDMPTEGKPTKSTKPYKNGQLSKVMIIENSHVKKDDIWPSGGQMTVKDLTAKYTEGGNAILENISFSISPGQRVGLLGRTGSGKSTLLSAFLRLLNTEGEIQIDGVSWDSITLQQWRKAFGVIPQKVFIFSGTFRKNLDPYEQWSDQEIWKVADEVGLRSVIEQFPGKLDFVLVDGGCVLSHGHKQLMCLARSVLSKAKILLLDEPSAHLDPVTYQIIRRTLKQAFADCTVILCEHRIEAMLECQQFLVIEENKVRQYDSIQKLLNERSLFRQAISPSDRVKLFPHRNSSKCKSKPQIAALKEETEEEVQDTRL
Format: cell-based
Method in brief: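 Read-out: change in voltage-sensing dye fluorescence (FLIPR III) as a measure of F508del conductance. Temperature-corrected (27° C, 24 hrs) NIH 3T3 cells expressing F508del are pretreated with potentiators, dye-loaded, then stimulated with forskolin under a chloride ion gradient using chloride-free gluconate bath.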
For `COc1cccc(S(=O)(=O)NC(=O)c2ccc(-c3cc(F)cc(OCC(C)C)c3)nc2N2CCC(C)(C)CC2)n1` [Compound 1090, 2-(4,4-dimethyl-1-piperidyl)-6-(3-fluoro-5-isobutoxy-phenyl)-N-[(6-methoxy-2-pyridyl)sulfonyl]pyridine-3-carboxamide], the EC30 was “+++ (“+++” means <3 uM)”. `C[C@@H]1CN(c2nc(-c3ccccc3)ccc2C(=O)NS(=O)(=O)N2CC[C@H](N)C2)C(C)(C)C1` [Compound 1725, N-[(3S)-3-aminopyrrolidin-1-yl]sulfonyl-6-phenyl-2-[(4S)-2,2,4-trimethylpyrrolidin-1-yl]pyridine-3-carboxamide] was tested, and the EC30 was “++ (“++” means between 3 uM and 10 uM)”. For `CCOc1cc(-c2ccc(C(=O)NS(=O)(=O)c3cccc(N)n3)c(N3C[C@@H](C)CC3(C)C)n2)cc(C(F)(F)F)c1` [Compound 1569, N-[(6-amino-2-pyridyl)sulfonyl]-6-[3-ethoxy-5-(trifluoromethyl)phenyl]-2-[(4S)-2,2,4-trimethylpyrrolidin-1-yl]pyridine-3-carboxamide], the EC30 was “+++ (“+++” means <3 uM)”. In the case of `COc1cccc(COc2cccc(S(=O)(=O)NC(=O)c3cccnc3N3CC(C)CC3(C)C)n2)c1` (stereo not drawn) [Compound 1972, N—[[6-[(3-methoxyphenyl)methoxy]-2-pyridyl]sulfonyl]-2-(2,2,4-trimethylpyrrolidin-1-yl)pyridine-3-carboxamide], the EC30 is reported as “+++ (“+++” means <3 uM)”. `CC1CN(c2nc(OC(C)C(C)C)c(F)cc2C(=O)NS(=O)(=O)c2cccc(N)n2)C(C)(C)C1` (stereo not drawn) [Compound 1810, N-[(6-amino-2-pyridyl)sulfonyl]-6-(1,2-dimethylpropoxy)-5-fluoro-2-(2,2,4-trimethylpyrrolidin-1-yl)pyridine-3-carboxamide] was tested, and the EC30 was “+++ (“+++” means <3 uM)”. `Cc1cc(C)c(Oc2nc(-c3ccccc3)ccc2C(=O)NS(=O)(=O)c2cccc(NCCN)n2)c(C)c1` [Compound 1027, N-[[6-(2-aminoethylamino)-2-pyridyl]sulfonyl]-6-phenyl-2-(2,4,6-trimethylphenoxy)pyridine-3-carboxamide] was tested, and the EC30 was “++ (“++” means between 3 uM and 10 uM)”. With `C=Cc1cc(C(=O)NS(=O)(=O)c2cccc(N)n2)c(N2C[C@@H](C)CC2(C)C)nc1C(C)(C)C` [Compound 1373, N-[(6-amino-2-pyridyl)sulfonyl]-6-tert-butyl-2-[(4S)-2,2,4-trimethylpyrrolidin-1-yl]-5-vinyl-pyridine-3-carboxamide] the EC30 was “+++ (“+++” means <3 uM)”. In the case of `Cc1cc(C)c(Oc2ncc(-c3ccccc3C(C)C)cc2C(=O)NS(=O)(=O)c2cccc(N)n2)c(C)c1` [Compound 865, N-[(6-amino-2-pyridyl)sulfonyl]-5-(2-isopropylphenyl)-2-(2,4,6-trimethylphenoxy)pyridine-3-carboxamide], the EC30 is reported as “+++ (“+++” means <3 uM)”. For `COc1ccc(-c2ccc(C(=O)NS(=O)(=O)c3cccnc3N)c(N3C[C@@H](C)CC3(C)C)n2)c(C)n1` [Compound 1866, N-[(2-amino-3-pyridyl)sulfonyl]-6-(6-methoxy-2-methyl-3-pyridyl)-2-[(4S)-2,2,4-trimethylpyrrolidin-1-yl]pyridine-3-carboxamide], the EC30 was “+++ (“+++” means <3 uM)”. In the case of `CC(C)Oc1ccc(-c2ccc(C(=O)NS(=O)(=O)c3cccc(N)n3)c(N3C[C@H]4CC[C@@H]3C4)n2)cn1` [Compound 921, N-[(6-amino-2-pyridyl)sulfonyl]-2-[(1S,4R)-3-azabicyclo[2.2.1]heptan-3-yl]-6-(6-isopropoxy-3-pyridyl)pyridine-3-carboxamide], the EC30 is reported as “++ (“++” means between 3 uM and 10 uM)”. For `Cc1cc(C)c(Oc2nc(C3=COCC3)ccc2C(=O)NS(=O)(=O)c2cccc(N)n2)c(C)c1` [Compound 1412, N-[(6-amino-2-pyridyl)sulfonyl]-6-(2,3-dihydrofuran-4-yl)-2-(2,4,6-trimethylphenoxy)pyridine-3-carboxamide], the EC30 was “+++ (“+++” means <3 uM)”. `CC1CN(c2ncccc2C(=O)NS(=O)(=O)c2cccc(Nc3ccc(OC(F)(F)F)cc3)n2)C(C)(C)C1` (stereo not drawn) [Compound 1977, N—[[6-[4-(trifluoromethoxy)anilino]-2-pyridyl]sulfonyl]-2-(2,2,4-trimethylpyrrolidin-1-yl)pyridine-3-carboxamide] was tested, and the EC30 was “+++ (“+++” means <3 uM)”. In the case of `CCc1cccc(S(=O)(=O)NC(=O)c2cc(C(C)(C)C)nn2Cc2c(C)cc(C)cc2C)c1` [Compound 823, 5-tert-butyl-N-(3-ethylphenyl)sulfonyl-2-[(2,4,6-trimethylphenyl)methyl]pyrazole-3-carboxamide], the EC30 is reported as “+ (“+” means greater than 10 uM)”. `CC1CN(c2ncccc2C(=O)NS(=O)(=O)c2cccc(Nc3ccc(C(C)C)cc3)n2)C(C)(C)C1` (stereo not drawn) [Compound 1722, N—[[6-(4-isopropylanilino)-2-pyridyl]sulfonyl]-2-(2,2,4-trimethylpyrrolidin-1-yl)pyridine-3-carboxamide] was tested, and the EC30 was “+++ (“+++” means <3 uM)”. With `CC(=O)C1CC=C(c2cc(C(=O)NS(=O)(=O)c3cccc(N)n3)c(N3CC(C)CC3(C)C)nc2C(C)(C)C)CC1` (stereo not drawn) [Compound 1461, 5-(4-acetylcyclohexen-1-yl)-N-[(6-amino-2-pyridyl)sulfonyl]-6-tert-butyl-2-(2,2,4-trimethylpyrrolidin-1-yl)pyridine-3-carboxamide] the EC30 was “+++ (“+++” means <3 uM)”. In the case of `CC(C)CN(C)c1cc(-c2ccc(C(=O)NS(=O)(=O)c3cccc(N)n3)c(N3CC(C)CC3(C)C)n2)ccn1` (stereo not drawn) [Compound 898, N-[(6-amino-2-pyridyl)sulfonyl]-6-[2-[isobutyl(methyl)amino]-4-pyridyl]-2-(2,2,4-trimethylpyrrolidin-1-yl)pyridine-3-carboxamide], the EC30 is reported as “+++ (“+++” means <3 uM)”. For `CCC1CCCN1c1nc(-c2ccc(OC(C)C)nc2)ccc1C(=O)NS(=O)(=O)c1cccc(N)n1` (stereo not drawn) [Compound 1087, N-[(6-amino-2-pyridyl)sulfonyl]-2-(2-ethylpyrrolidin-1-yl)-6-(6-isopropoxy-3-pyridyl)pyridine-3-carboxamide], the EC30 was “+++ (“+++” means <3 uM)”. For `CCC1(C)CCCN(c2nc(-c3ccc(OC(C)C)nc3)ccc2C(=O)NS(=O)(=O)c2cccc(N)n2)C1` (stereo not drawn) [Compound 1341, N-[(6-amino-2-pyridyl)sulfonyl]-2-(3-ethyl-3-methyl-1-piperidyl)-6-(6-isopropoxy-3-pyridyl)pyridine-3-carboxamide], the EC30 was “+++ (“+++” means <3 uM)”. For `CC(C)COc1cc(F)cc(-c2ccc(C(=O)NS(=O)(=O)c3cccc(N)n3)c(OCC3(C)COC3)n2)c1` [Compound 824, N-[(6-amino-2-pyridyl)sulfonyl]-6-(3-fluoro-5-isobutoxy-phenyl)-2-[(3-methyloxetan-3-yl)methoxy]pyridine-3-carboxamide], the EC30 was “++ (“++” means between 3 uM and 10 uM)”. With `C[C@@H]1CN(c2nc(C3CCOC3)ccc2C(=O)NS(=O)(=O)c2cccc(N)n2)C(C)(C)C1` (stereo partly drawn) [Compound 1534, N-[(6-amino-2-pyridyl)sulfonyl]-6-tetrahydrofuran-3-yl-2-[(4S)-2,2,4-trimethylpyrrolidin-1-yl]pyridine-3-carboxamide] the EC30 was “++ (“++” means between 3 uM and 10 uM)”. With `CC(C)COc1cc(F)cc(-c2ccc(C(=O)NS(=O)(=O)c3cccc(N)n3)c(OC(C)c3ccccc3)n2)c1` (stereo not drawn) [Compound 874, N-[(6-amino-2-pyridyl)sulfonyl]-6-(3-fluoro-5-isobutoxy-phenyl)-2-(1-phenylethoxy)pyridine-3-carboxamide] the EC30 was “+++ (“+++” means <3 uM)”.
